# Experimental data taken from ChEMBL document CHEMBL3046459, “Structural insights for 3H-1, -2, -4 triazolinones as angiotensin II receptor antagonists using QSAR techniques” (Med Chem Res, 2010).
# pIC50: −log10 of the molar value.
# Biological target: T1, Type-1 angiotensin II receptor (Oryctolagus cuniculus) (UniProt P34976)
# T1 sequence (whole entry): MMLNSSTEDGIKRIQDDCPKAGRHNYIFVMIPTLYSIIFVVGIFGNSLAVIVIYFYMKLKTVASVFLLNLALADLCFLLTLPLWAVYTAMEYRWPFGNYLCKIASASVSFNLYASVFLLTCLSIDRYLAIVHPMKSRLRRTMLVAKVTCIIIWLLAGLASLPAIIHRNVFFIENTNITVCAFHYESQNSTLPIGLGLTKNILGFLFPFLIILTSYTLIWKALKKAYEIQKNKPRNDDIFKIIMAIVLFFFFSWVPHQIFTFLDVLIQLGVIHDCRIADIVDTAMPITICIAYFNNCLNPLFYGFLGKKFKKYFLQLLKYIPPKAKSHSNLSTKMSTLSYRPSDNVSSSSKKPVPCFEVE
# Test: (§1) Antagonist activity at angiotensin 2 type-1 receptor in Oryctolagus cuniculus (rabbit) aorta in presence of bovine serum albumin
# Parameters: unit not given here
row,Compound,logIC50
1,CCCCc1nn(C(C)C)c(=O)n1Cc1ccc(-c2ccccc2-c2nn[nH]n2)cc1,0.886
2,CCCCc1nn(Cc2ccccc2C(=O)O)c(=O)n1Cc1ccc(-c2ccccc2-c2nn[nH]n2)cc1,2.69
3,CCCCc1nn(Cc2cccc(C(=O)OC)c2)c(=O)n1Cc1ccc(-c2ccccc2-c2nn[nH]n2)cc1,2.04
4,CCCCc1nn(-c2ccc(OC)cc2)c(=O)n1Cc1ccc(-c2ccccc2-c2nn[nH]n2)cc1,0.699
5,CCCCc1nn(C)c(=O)n1Cc1ccc(-c2ccccc2-c2nn[nH]n2)cc1,1.84
6,CCCCc1nn(-c2ccccc2Cc2ccccc2)c(=O)n1Cc1ccc(-c2ccccc2-c2nn[nH]n2)cc1,1.04
7,CCCCc1nn(-c2ccc(C(=O)OC)cc2)c(=O)n1Cc1ccc(-c2ccccc2-c2nn[nH]n2)cc1,1.52
8,CCCCc1nn(C(C(=O)OC)c2ccccc2)c(=O)n1Cc1ccc(-c2ccccc2-c2nn[nH]n2)cc1 (centres undefined),1.08
9,CCCCc1nn(CC2CCCCC2)c(=O)n1Cc1ccc(-c2ccccc2-c2nn[nH]n2)cc1,0.462
10,CCCCc1nn(-c2ccc(Cl)cc2)c(=O)n1Cc1ccc(-c2ccccc2-c2nn[nH]n2)cc1,1.84
11,CCCCc1nn(-c2cccc(Cl)c2)c(=O)n1Cc1ccc(-c2ccccc2-c2nn[nH]n2)cc1,2.08
12,CCCCc1nn(-c2c(F)c(F)c(F)c(F)c2F)c(=O)n1Cc1ccc(-c2ccccc2-c2nn[nH]n2)cc1,1.23
13,CCCCc1nn(CCC)c(=O)n1Cc1ccc(-c2ccccc2-c2nn[nH]n2)cc1,0.914
14,CCCCc1nn(CC(=O)OC)c(=O)n1Cc1ccc(-c2ccccc2-c2nn[nH]n2)cc1,1.23
15,CCCCc1nn(-c2ccccn2)c(=O)n1Cc1ccc(-c2ccccc2-c2nn[nH]n2)cc1,1.9
16,CCCCc1nn(Cc2cccc(C)c2)c(=O)n1Cc1ccc(-c2ccccc2-c2nn[nH]n2)cc1,1.08
17,CCCCc1nn(Cc2c(F)c(F)c(F)c(F)c2F)c(=O)n1Cc1ccc(-c2ccccc2-c2nn[nH]n2)cc1,1.5
18,CCCCc1nn(Cc2ccccc2C)c(=O)n1Cc1ccc(-c2ccccc2-c2nn[nH]n2)cc1,1.04

row,Compound,logIC50
1,CCCCc1nn(Cc2ccccc2)c(=O)n1Cc1ccc(-c2ccccc2-c2nn[nH]n2)cc1,0.663
2,CCCCc1nn(C(C)c2ccccc2)c(=O)n1Cc1ccc(-c2ccccc2-c2nn[nH]n2)cc1 (centres undefined),0.69
3,CCCCc1nn(-c2cccc(C)c2)c(=O)n1Cc1ccc(-c2ccccc2-c2nn[nH]n2)cc1,1.25
4,CCCCc1nn(CCCC)c(=O)n1Cc1ccc(-c2ccccc2-c2nn[nH]n2)cc1,0.462
5,CCCCc1nn(-c2c(Cl)cccc2Cl)c(=O)n1Cc1ccc(-c2ccccc2-c2nn[nH]n2)cc1,0.763
6,CCCCc1nn(CC)c(=O)n1Cc1ccc(-c2ccccc2-c2nn[nH]n2)cc1,1
7,CCCCc1nn(Cc2ccc(C(=O)OC)cc2)c(=O)n1Cc1ccc(-c2ccccc2-c2nn[nH]n2)cc1,1.36
8,CCCCc1nn(-c2ccccc2-c2ccccc2)c(=O)n1Cc1ccc(-c2ccccc2-c2nn[nH]n2)cc1,0.556
9,CCCCc1nn(C(C(=O)O)c2ccccc2)c(=O)n1Cc1ccc(-c2ccccc2-c2nn[nH]n2)cc1 (centres undefined),1.83
10,CCCCc1nn(-c2ccc(C)cc2)c(=O)n1Cc1ccc(-c2ccccc2-c2nn[nH]n2)cc1,1.2
11,CCCCc1nn(-c2cccc(OC)c2)c(=O)n1Cc1ccc(-c2ccccc2-c2nn[nH]n2)cc1,1.18
12,CCCCc1nn(C(C)CC)c(=O)n1Cc1ccc(-c2ccccc2-c2nn[nH]n2)cc1 (centres undefined),0.255
13,CCCCc1nn(-c2ccc(F)cc2)c(=O)n1Cc1ccc(-c2ccccc2-c2nn[nH]n2)cc1,1.32
14,CCCCc1nn(CC(C)C)c(=O)n1Cc1ccc(-c2ccccc2-c2nn[nH]n2)cc1,0.505
15,CCCCc1nn(-c2ccc(CC)cc2)c(=O)n1Cc1ccc(-c2ccccc2-c2nn[nH]n2)cc1,1.43
16,CCCCc1nn(Cc2ccccc2C(=O)OC)c(=O)n1Cc1ccc(-c2ccccc2-c2nn[nH]n2)cc1,1.04
17,CCCCc1nnc(O)n1Cc1ccc(-c2ccccc2-c2nn[nH]n2)cc1,1.78

# The remaining lines, values ahead:
row,logIC50,Compound
1,0.756,CCCCCc1nn(-c2ccccc2Cl)c(=O)n1Cc1ccc(-c2ccccc2-c2nn[nH]n2)cc1
2,0.38,CCCCc1nn(-c2ccccc2Cl)c(=O)n1Cc1ccc(-c2ccccc2-c2nn[nH]n2)cc1
3,-0.0315,CCCCCc1nn(-c2ccccc2[N+](=O)[O-])c(=O)n1Cc1ccc(-c2ccccc2-c2nn[nH]n2)cc1
4,2.06,CCCCc1nn(-c2ccccc2C(=O)O)c(=O)n1Cc1ccc(-c2ccccc2-c2nn[nH]n2)cc1
5,0.146,CCCCc1nn(-c2ccccc2C(C)C)c(=O)n1Cc1ccc(-c2ccccc2-c2nn[nH]n2)cc1
6,0.301,CCCCc1nn(-c2ccccc2Br)c(=O)n1Cc1ccc(-c2ccccc2-c2nn[nH]n2)cc1
7,0.613,CCCCc1nn(-c2ccccc2C)c(=O)n1Cc1ccc(-c2ccccc2-c2nn[nH]n2)cc1
8,0.748,CCCCc1nn(-c2ccccc2C(=O)OC)c(=O)n1Cc1ccc(-c2ccccc2-c2nn[nH]n2)cc1
9,0.886,CCCCc1nn(-c2ccccc2F)c(=O)n1Cc1ccc(-c2ccccc2-c2nn[nH]n2)cc1
10,1.9,CCCCc1nn(-c2ccc([N+](=O)[O-])cc2)c(=O)n1Cc1ccc(-c2ccccc2-c2nn[nH]n2)cc1
11,1.15,CCCc1nn(-c2ccccc2Cl)c(=O)n1Cc1ccc(-c2ccccc2-c2nn[nH]n2)cc1
12,-0.131,CCCCc1nn(-c2ccc(OC)cc2[N+](=O)[O-])c(=O)n1Cc1ccc(-c2ccccc2-c2nn[nH]n2)cc1
13,0.978,CCCc1nn(-c2ccccc2[N+](=O)[O-])c(=O)n1Cc1ccc(-c2ccccc2-c2nn[nH]n2)cc1
14,1.63,CCCCc1nn(-c2cccc([N+](=O)[O-])c2)c(=O)n1Cc1ccc(-c2ccccc2-c2nn[nH]n2)cc1
15,0.0792,CCCCc1nn(-c2ccccc2C(F)(F)F)c(=O)n1Cc1ccc(-c2ccccc2-c2nn[nH]n2)cc1
16,0.505,CCCCc1nn(-c2ccccc2N(C)C)c(=O)n1Cc1ccc(-c2ccccc2-c2nn[nH]n2)cc1
17,0.82,CCCCc1nn(-c2ccccc2OC)c(=O)n1Cc1ccc(-c2ccccc2-c2nn[nH]n2)cc1
18,2,CCCCc1nn(-c2ccccc2N)c(=O)n1Cc1ccc(-c2ccccc2-c2nn[nH]n2)cc1

# Biological target: T2, Type-1 angiotensin II receptor (Oryctolagus cuniculus, UniProt P34976)
# T2 sequence (P34976 whole entry): T1 sequence (whole entry)
# Test: as §1
row,pIC50,Compound
1,8.22,CCCCc1nn(Cc2c(F)c(F)c(F)c(F)c2F)c(=O)n1Cc1ccc(-c2ccccc2-c2nn[nH]n2)cc1
